From paper PMC8625051, “Wound Healing Metabolites from Peters’ Elephant-Nose Fish Oil: An In Vivo Investigation Supported by In Vitro and In Silico Studies” (Marine Drugs, 2021)

Key:
Assay type in all cases: biochemical
COX-2 = target: T1, COX-2 (Homo sapiens, UniProt P35354); assay: In vitro COX-2 inhibitory assay (fluorometric screening kit, Biovision)
T1 construct: purchased Biovision
T1 sequence (P35354 18-604): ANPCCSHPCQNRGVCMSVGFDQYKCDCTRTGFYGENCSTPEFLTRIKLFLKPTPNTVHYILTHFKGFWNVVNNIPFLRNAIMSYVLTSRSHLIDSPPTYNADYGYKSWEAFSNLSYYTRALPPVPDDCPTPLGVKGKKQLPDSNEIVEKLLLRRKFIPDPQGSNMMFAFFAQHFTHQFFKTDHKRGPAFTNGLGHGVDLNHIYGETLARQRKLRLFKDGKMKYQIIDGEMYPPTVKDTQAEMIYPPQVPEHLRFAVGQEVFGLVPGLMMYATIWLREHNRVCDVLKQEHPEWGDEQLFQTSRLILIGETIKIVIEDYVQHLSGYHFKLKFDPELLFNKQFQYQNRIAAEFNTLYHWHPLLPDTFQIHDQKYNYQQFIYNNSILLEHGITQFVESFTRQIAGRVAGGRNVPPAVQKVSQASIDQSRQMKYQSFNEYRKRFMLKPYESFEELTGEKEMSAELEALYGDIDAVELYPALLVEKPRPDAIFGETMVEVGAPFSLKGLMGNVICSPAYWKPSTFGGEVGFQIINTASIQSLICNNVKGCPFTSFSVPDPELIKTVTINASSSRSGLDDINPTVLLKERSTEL
Procedure: (§1) The in vitro inhibitory assays of the isolated compounds against COX-1 and COX-2 were determined by using fluorometric-based screening kits (Biovision, Switzerland) according to the manufacturer’s protocol. These assays are based on the detection of the florescence produced by prostaglandin G2, i.e., the intermediate product produced by the COX-1 and -2 enzymes. The enzymes solutions were prepared by adding […] of dd. H2O to the lyophilized enzymes in the kit. The diluted COX cofactor was formulated by mixing the COX assay buffer (398 mL) and COX Cofactor (2 mL). 5 mL of arachidonic acid were added to 5 mL of NaOH and then diluted by 90 mL of double distilled H2O to produce dilute arachidonic acid/NaOH solution. Subsequently, all these prepared solutions were mixed to produce the reaction mixture ([…]). Different concentrations of the test compounds were added to the previous solution. The reaction mixtures were then incubated at 25 °C for 10 min. […] These assays of test compounds, blank, and reference inhibitors were carried out in triplicates. IC50 values were calculated by GraphPad software (version 7.0), where the percentage inhibitions were plotted versus the log concentrations. Dividing the IC50 calculated for […] by the IC50 calculated for […] was applied to determine the Selectivity index (SI).

COX-1 = target: T2, COX-1 (Ovis aries, UniProt P05979); assay: In vitro COX-1 inhibitory assay (fluorometric screening kit, Biovision)
T2 construct: purchased Biovision
T2 sequence (P05979 25-600): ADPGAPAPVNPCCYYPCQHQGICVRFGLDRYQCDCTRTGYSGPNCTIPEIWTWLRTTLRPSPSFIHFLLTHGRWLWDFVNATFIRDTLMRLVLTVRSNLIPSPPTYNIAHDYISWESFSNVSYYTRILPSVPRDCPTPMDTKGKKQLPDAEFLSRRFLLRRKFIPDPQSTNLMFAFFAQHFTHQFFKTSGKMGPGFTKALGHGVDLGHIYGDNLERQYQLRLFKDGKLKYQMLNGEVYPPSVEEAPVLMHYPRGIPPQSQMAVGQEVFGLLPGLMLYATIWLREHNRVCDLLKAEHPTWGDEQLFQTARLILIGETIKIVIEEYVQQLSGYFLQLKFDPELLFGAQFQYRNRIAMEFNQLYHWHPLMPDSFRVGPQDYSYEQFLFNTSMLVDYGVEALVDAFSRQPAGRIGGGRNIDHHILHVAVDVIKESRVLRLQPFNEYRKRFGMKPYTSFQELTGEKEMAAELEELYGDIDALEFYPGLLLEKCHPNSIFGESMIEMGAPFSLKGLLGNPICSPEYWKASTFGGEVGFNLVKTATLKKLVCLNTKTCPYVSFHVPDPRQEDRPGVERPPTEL
Procedure: as §1

[1] = Hydrogen peroxide scavenging activity
Procedure: The residual H2O2 was determined colorimetrically. Briefly, 20 µL of the sample was added to 500 µL of H2O2 and incubated for 10 min., at 37 °C. […] The optical density of the colored product was measured at 510 nm using ascorbic acid as a positive control. The percentage of H2O2 scavenging activity was calculated by using the following formula (Equation (1)). (1) Scavenging activity=A control – A sample/A control×100 IC50 of each sample was determined at four different concentrations using Graph pad prism 7 software.

[2] = Superoxide radical scavenging activity
Procedure: The superoxide anion scavenging activity was measured as previously performed by […] et al., 2007 [57]. […] The reaction was initiated by adding 0.1 mL PMS solution (0.12 mM) to the mixture, incubated at 25 °C for 5 min., and the optical density was measured at 560 nm, compared to the reference ascorbic acid. The percentage inhibition was calculated using the following formula, Equation (2). (2) Superoxide scavenging activity=A control - A sample/A control×100 IC50 was calculated using Graph pad prism 7 software by performing the test at four different concentrations.

| SMILES | IC50 (COX-2) [µM] | IC50 (COX-1) [µM] | COX-2/COX-1 (COX-2; selectivity index, ratio of IC50 values) | H2O2 scavenging IC50 [1] [µg/mL] | superoxide radical scavenging IC50 [2] [µg/mL] |
| --- | --- | --- | --- | --- | --- |
| CCCCCC/C=C\CCCCCCCC(=O)O [Compound 1, palmitoleic acid] | > 100 | > 100 |  |  |  |
| CCCCCCCCCCCCCCCC(=O)O [Compound 2, palmitic acid] | > 100 | > 100 |  |  |  |
| CCCCCCCC/C=C\CCCCCCCC(=O)O [Compound 3, oleic acid] | > 100 | > 100 |  |  |  |
| CCCCCCC=CCC=CCC=CCC=CCCCCC(=O)O [Compound 4, 6,9,12,15-docosatetraenoic acid] | 2.41 ± 0.2 | 18.5 ± 0.4 | 0.13 |  |  |
| CC(C)CCC[C@@H](C)[C@H]1CC[C@H]2[C@@H]3CC=C4C[C@@H](O)CC[C@]4(C)[C@H]3CC[C@]12C [Compound 5, cholesterol] | > 100 | > 100 |  |  |  |
| CCCCCCCCCCc1ccccc1O [Compound 6, 2-decylphenol] | > 100 | > 100 |  |  |  |
| O=C1O[C@H]([C@@H](O)CO)C(O)=C1O [ascorbic acid] |  |  |  | 174.2 | 164 |
